From paper PMC12113347, “Compound 3d Attenuates Metabolic Dysfunction-Associated Steatohepatitis via Peroxisome Proliferator-Activated Receptor Pathway Activation and Inhibition of Inflammatory and Apoptotic Signaling” (Metabolites, 2025)

How the values were obtained:
C57BL/6J male mice = experiment: HFD-induced MASH model in mice: serum and liver biochemistry, body and liver weight, histology; format: in vivo; conditions: HFD mice; for body weight: 8 weeks of treatment; for serum TG levels: 8 weeks, fenofibrate 100 mg/kg, elafibranor 30 mg/kg, 3d 3, 10, 30 mg/kg; for liver weight/body weight: indicator for evaluating drug toxicity
Experimental: All animal studies were conducted in accordance with national legislation and local guidelines at the Center for Laboratory Animals in Tianjin University of Science and Technology and approved by the Animal Ethics Committee of Tianjin University of Science and Technology (8 March 2022, Tianjin, China). The C57BL/6J male mice (6 weeks) were purchased from Henan Scribex Biotechnology Co, Ltd (Zhenzhou, China). Following a one-week period of acclimatization, the mice were fed a high-fat diet (HFD) comprising 60% fat (TP23300, Trophic Animal Feed High-Tech Co., Ltd., (Nantong, China)) and a low-fat control diet (TP23302, Trophic Animal Feed High-Tech Co., Ltd., (Nantong, China)) for 16 weeks.
After 16 weeks of continuous feeding on a high-fat diet, key indicators were tested to determine modeling success and drug administration was initiated. The mice were randomly divided into seven groups (n = 10) according to their body weight. The groups were as follows: control group (control diet, 0.5% CMC-Na), model group (HFD, 0.5% CMC-Na), positive control group (HFD, 100 mg/kg Fenofibrate), elafibranor group (HFD, 30 mg/kg), and 3d group (HFD, 3, 10, 30 mg/kg). The experiment was conducted over a period of eight weeks.
After fasting for 12 h, the mice were anaesthetized and blood samples were collected, as were the mice liver tissues. The ileal contents were collected and immediately frozen in liquid nitrogen and then transferred to storage at −80 °C. The blood samples were subjected to centrifugation at 3000 rpm/min for 10 min to obtain supernatant serum, which was stored at −80 °C. The liver tissues were weighed, and a portion of the liver was preserved in 4% paraformaldehyde for subsequent pathological sectioning, including staining with H&E, Masson, and Oil Red O. The remaining samples were stored at −80 °C for testing of various biochemical indices.
The serum levels of TG, total cholesterol (TC), low-density lipoprotein cholesterol (LDL-C), […] aminotransferase (AST), ALT, and TNF-α were determined according to the instructions of the kit. The levels of glutathione (GSH) and superoxide dismutase (SOD) were measured using liver tissue homogenates. The kits were purchased from the Nanjing Jiancheng Institute of Biological Engineering (Nanjing, China).

[1] = In vitro stability in DMEM medium, simulated gastric fluid and simulated intestinal fluid (HPLC); format: in vitro ADME; conditions: 40 μM, 37 °C
Experimental: Elafibranor and 3d (40 μM) were dissolved in DMEM medium, as well as in simulated gastric fluid (SGF) and simulated intestinal fluid (SIF), respectively, at 37 °C. The concentration of the compounds was determined within 24 h by HPLC. The HPLC conditions comprised an ACQUITY UPLC BEH C18 column maintained at 40 °C with a mobile phase consisting of 20% ultrapure water and 80% acetonitrile, with a flow rate of 1 mL/min at 360 nm.

[2] = in vivo; cited from earlier work

| concentration in culture medium (stability) ([1]; DMEM, within 24 h) | concentration in gastric fluid (stability) ([1]; SGF) | concentration in intestinal fluid (stability) ([1]; SIF, within 24 h) | Structure (SMILES) | liver steatosis and lipid accumulation (HE, Oil Red O sections) (C57BL/6J male mice) | body weight (C57BL/6J male mice) | serum TG levels (C57BL/6J male mice) | liver weight/body weight (C57BL/6J male mice) | oral bioavailability [2] |
| --- | --- | --- | --- | --- | --- | --- | --- | --- |
|  |  |  | CC(C)OC(=O)C(C)(C)Oc1ccc(C(=O)c2ccc(Cl)cc2)cc1 [fenofibrate, Fenofibrate, reference compound] | improved the steatosis and reduced lipid accumulation in the liver to some extent | decrease in body weight | decreased and returned to normal levels | substantial influence on the rise |  |
| remained relatively constant | decreased significantly after 60 min | remained relatively constant | CSc1ccc(C(=O)/C=C/c2cc(C)c(OC(C)(C)C(=O)O)c(C)c2)cc1 [elafibranor, Elafibranor, reference compound] | effective in reducing the degree of steatosis and reducing lipid accumulation better than fenofibrate but still could not bring them back to fully normal | decrease in body weight | decreased and returned to normal levels | substantial influence on the rise | around 30% |
